{"source": "patent US20190062736A1", "about": "“IN SITU AND IN VIVO ANALYSIS OF CHROMATIN INTERACTIONS BY BIOTINYLATED DCAS9 PROTEIN” (BOARD OF REGENTS, THE UNIVERSITY OF TEXAS SYSTEM, priority 2017, published 2019)", "key": {"[1]": {"system": "human primary erythroid cells", "assay": "qRT-PCR of β-globin mRNAs after JQ1 treatment", "assay_type": "cell-based", "conditions": "JQ1 vs DMSO", "procedure": "(§1) Cells and Cell Culture. Human […] K562 cells were obtained from ATCC and cultured in IMDM medium containing 10% FBS and 1% penicillin/streptomycin. pEF1α-FB-dCas9 and pEF1α-BirA-V5 vectors were co-transfected into K562 cells by nucleofection using the ECM 830 Square Wave Electroporation System (Harvard Apparatus, Holliston, Mass.). Cells were plated in 96-well plates and treated with 1 μg/ml of puromycin (Sigma) and 600 μg/ml of G418 (Sigma) 48-72 hour post-transfection. Single-cell-derived clones were isolated and examined by Western blot analysis to screen for FB-dCas9 and BirA-expressing stable clones. Human primary adult erythroid progenitor cells were generated ex vivo from CD34+ HSPCs as previously described (Huang et al., 2016). Primary HSPCs from both sexes were used in this study. […] Mouse male embryonic stem cells (ESCs) were cultured on primary embryonic fibroblasts and differentiated to embryoid bodies (EBs) by LIF withdrawal for 8 days. All cultures were incubated at 37° C. in 5% CO2. All cell lines were tested for mycoplasma contamination. […]\nRNA-seq and qRT-PCR Analysis. […] Sequencing reads from all RNA-seq experiments were aligned to human (hg19) reference genome by TopHat v2.0.13 (Trapnell et al., 2009) with the parameters: --solexaquals --no-novel-juncs. Quantitative RT-PCR (qRT-PCR) was performed using the iQ SYBR Green Supermix (Bio-Rad)."}, "human erythroid cells": {"system": "human erythroid cells", "assay": "Erythroid maturation by CD71/CD235a flow cytometry and cytospin after JQ1", "assay_type": "cell-based", "conditions": "JQ1 vs DMSO, cell surface markers CD71 and CD235a, cytospin", "procedure": "as §1, with “CO2.” for “CO2. All cell lines were tested for mycoplasma contamination.”\nFlow Cytometry. Human erythroid cell differentiation was analyzed by flow cytometry using FACSCanto. […] The cells were analyzed for expression of cell surface receptors with antibodies specific for CD71 and CD235a conjugated to phycoerythrin (PE) and fluorescein isothiocyanate (FITC), respectively. Data were analyzed using FlowJo software (Ashland, Oreg.). […]"}}, "note": "Entries after “also recorded” stand apart in the source; their conditions may differ."}
{"smiles": "Cc1sc2c(c1C)C(c1ccc(Cl)cc1)=N[C@@H](CC(=O)OC(C)(C)C)c1nnc(C)n1-2", "note": "[JQ1]", "values": [{"measurement": "β-globin mRNAs", "setting": "[1]", "result": "significant downregulation; also recorded: significantly decreased"}, {"measurement": "erythroid differentiation", "setting": "human erythroid cells", "result": "without apparent effects"}]}
